Test results taken from patent publication US6656911B2, “Serine protease inhibitors” (Cortech, Inc., priority 1994, dated 2003).

Molecular target: T1, human neutrophil elastase (HNE) (Homo sapiens, UniProt P08246)
T1 sequence (P08246 30-267): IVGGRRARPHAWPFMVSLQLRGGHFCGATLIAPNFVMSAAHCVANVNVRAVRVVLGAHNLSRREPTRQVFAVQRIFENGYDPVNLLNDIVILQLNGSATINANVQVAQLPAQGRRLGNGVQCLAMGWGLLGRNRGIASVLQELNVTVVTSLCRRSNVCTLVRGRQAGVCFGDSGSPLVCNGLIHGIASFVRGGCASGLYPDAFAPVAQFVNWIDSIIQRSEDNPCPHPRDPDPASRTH
Assay: HNE Ki of CE compounds, tested as described in WO 96/16080
Assay type: biochemical
Details: read-out: HNE Ki

2-Oxo-5-methyl-1,4-(1-thiophenodiazepine)-N-[1-(2-[5-(3-methylbenzyl)-1,3,4-oxadiazolyl]carbonyl)-2-(S)-methylpropyl]acetamide [CE2244]
Ki: 78.5 nM

3-(S)-Amino-ε-lactam-N-[1-(2-[5-(3-methylbenzyl)-1,3,4-oxadiazolyl]carbonyl)-2-(S)-methylpropyl]acetamide trifluoroacetic acid salt [CE2080]
Ki: 62 nM

3-(S)-[(4-Morpholino carbonyl-butanoyl)amino]-ε-lactam-N-[1-(2-[5-(3-methylbenzyl)-1,3,4-oxadiazolyl]carbonyl)-2-(R,S)-methylpropyl]acetamide [CE2091]
Ki: 270 nM

Cc1cc(C)cc(Cc2nc(C(=O)[C@@H](NC(=O)[C@@H]3CCCN3C(=O)[C@@H](NC(=O)OCc3ccccc3)C(C)C)C(C)C)no2)c1 [CE2052, (Benzyloxycarbonyl)-L-valyl-N-[1-(3-[5-(3,5-dimethylbenzyl)-1,2,4-oxadiazolyl)carbonyl)-2-(S)-methylpropyl]-L-prolinamide]
Ki: 0.37 nM

COc1cc(Cc2nc(C(=O)[C@@H](NC(=O)[C@@H]3CCCN3C(=O)[C@@H](NC(=O)OCc3ccccc3)C(C)C)C(C)C)no2)cc(OC)c1 [CE2053, (Benzyloxycarbonyl)-L-valyl-N-[1-(3-[5-(3,5-dimethoxybenzyl)-1,2,4-oxadiazolyl]carbonyl)-2-(S)-methylpropyl]-L-prolinamide]
Ki: 0.41 nM

CC(C)[C@H](NC(=O)[C@@H]1CCCN1C(=O)[C@@H](NC(=O)OCc1ccccc1)C(C)C)C(=O)c1noc(Cc2cc(C(F)(F)F)cc(C(F)(F)F)c2)n1 [CE2054, (Benzyloxycarbonyl)-L-valyl-N-[1-(3-[5-(3,5-ditrifluoromethylbenzyl)-1,2,4-oxadiazolyl]carbonyl)-2-(S)-methylpropyl]-L-prolinamide]
Ki: 0.29 nM

CC(C)[C@H](NC(=O)[C@@H]1CCCN1C(=O)[C@@H](NC(=O)OCc1ccccc1)C(C)C)C(=O)c1noc(C(c2ccccc2)c2ccccc2)n1 [CE2057]
Ki: 0.375 nM

CC(C)[C@H](NC(=O)[C@@H]1CCCN1C(=O)[C@@H](NC(=O)OCc1ccccc1)C(C)C)C(=O)c1noc(Cc2ccc(-c3ccccc3)cc2)n1 [CE2058, (Benzyloxycarbonyl)-L-valyl-N-[1-(3-[5-(4-phenylbenzyl)-1,2,4-oxadiazolyl]carbonyl)-2-(S)-methylpropyl]-L-prolinamide]
Ki: 0.564 nM

CC(C)[C@H](NC(=O)[C@@H]1CCCN1C(=O)[C@@H](NC(=O)OCc1ccccc1)C(C)C)C(=O)c1noc(Cc2cccc(-c3ccccc3)c2)n1 [CE2062, (Benzyloxycarbonyl)-L-valyl-N-[1-(3-[5{3-phenylbenzyl)-1,2,4-oxadiazolyl]carbonyl)-2-(S)-methylpropyl]-L-prolinamide]
Ki: 0.3 nM

CC(C)[C@H](NC(=O)[C@@H]1CCCN1C(=O)[C@@H](NC(=O)OCc1ccccc1)C(C)C)C(=O)c1noc(Cc2cccc(Oc3ccccc3)c2)n1 [CE2066, (Benzyloxycarbonyl)-L-valyl-N-[1-(3-[5-(3-phenoxybenzyl)-1,2,4-oxadiazolyl]carbonyl)-2-(S)-methylpropyl]-L-prolinamide]
Ki: 0.98 nM

CC(C)[C@H](NC(=O)[C@@H]1CCCN1C(=O)[C@@H](NC(=O)OCc1ccccc1)C(C)C)C(=O)c1noc(CC2CCCCC2)n1 [CE2069]
Ki: 4.4 nM

CC(C)[C@H](NC(=O)[C@@H]1CCCN1C(=O)[C@@H](NC(=O)OCc1ccccc1)C(C)C)C(=O)c1noc(C(C)(C)c2cccc(C(F)(F)F)c2)n1 [CE2073, (Benzyloxycarbonyl)-L-valyl-N-[1-(3-[5-(α,α-dimethyl-3-trifluoromethylbenzyl)-1,2,4-oxadiazolyl]carbonyl)-2-(S)-methylpropyl]-L-prolinamide]
Ki: 0.235 nM

Cc1nnc(C(=O)[C@@H](NC(=O)[C@@H]2CCCN2C(=O)[C@@H](NC(=O)OCc2ccccc2)C(C)C)C(C)C)o1 [CE2074]
Ki: 1 nM

CC(C)[C@H](NC(=O)[C@@H]1CCCN1C(=O)[C@@H](NC(=O)OCc1ccccc1)C(C)C)C(=O)c1nnc(Cc2cccc(C(F)(F)F)c2)o1 [CE2075, (Benzyloxycarbonyl)-L-valyl-N-[1-(2-[5-(3-trifluoromethylbenzyl)-1,3,4-oxadiazolyl]carbonyl)-2-(S)-methylpropyl]-L-prolinamide]
Ki: 0.039 nM

CC(C)[C@H](NC(=O)[C@@H]1CCCN1C(=O)[C@@H](NC(=O)OCc1ccccc1)C(C)C)C(=O)c1noc(Cc2cccc3ccccc23)n1 [CE2077, (Benzyloxycarbonyl)-L-valyl-N-[1-(3-[5-(1-napthylmethylene)-1,2,4-oxadiazolyl]carbonyl)-2-(S)-methylpropyl]-L-prolinamide]
Ki: 0.15 nM

CC(C)[C@H](NC(=O)[C@@H]1CCCN1C(=O)[C@@H](NC(=O)OCc1ccccc1)C(C)C)C(=O)c1noc(Cc2cccnc2)n1 [CE2078, (Benzyloxycarbonyl)-L-valyl-N-[1-(3-[5-(3-pyridylmethyl)-1,2,4-oxadiazolyl]carbonyl)-2-(S)-methylpropyl]-L-prolinamide]
Ki: 1.05 nM

CC(C)C(NC(=O)CN1C(=O)CN(C)C(=O)C1c1ccccc1)C(=O)c1noc(Cc2cccc(C(F)(F)F)c2)n1 [CE2084, 4-[1-Methyl-3-(R,S)-phenylpiperazine-2,5,-dione]-N-[1-(3-[5-(3-trifluoromethylbenzyl)-1,2,4-oxadiazolyl]carbonyl)-2-(S)-methylpropyl]acetamide]
Ki: 133 nM

Cc1cccc(Cc2nnc(C(=O)C(NC(=O)CN3C(=O)CCCC3c3ccc(F)cc3)C(C)C)o2)c1 [CE2087, 6-[4-Fluorophenyl]-ε-lactam-N-[1-(2-[5-(3-methylbenzyl)-1,3,4-oxadiazolyl]carbonyl)-2-(S)-methylpropyl]acetamide]
Ki: 20 nM

CC(C)[C@H](NC(=O)Cn1c(-c2ccc(F)cc2)ncc(NC(=O)OCc2ccccc2)c1=O)C(=O)c1noc(Cc2cccc(C(F)(F)F)c2)n1 [CE2089, 2-[5-[(Benzyloxycarbonyl]amino]-6-oxo-2-(4-fluorophenyl)-1,6-dihydro-1-pyrimidinyl]-N-[1-(3-[5-(3-trifluoromethylbenzyl)-1,2,4-oxadiazolyl]carbonyl)7(S)-2-methylpropyl]acetamide]
Ki: 1.5 nM

CC(C)[C@H](NC(=O)Cn1c(-c2ccc(F)cc2)ncc(N)c1=O)C(=O)c1noc(Cc2cccc(C(F)(F)F)c2)n1 [CE2090]
Ki: 2.7 nM

CC(C)[C@H](NC(=O)[C@@H]1CCCN1C(=O)[C@@H](NC(=O)OCc1ccccc1)C(C)C)C(=O)c1noc(Cc2cc(-c3ccccc3)cc(-c3ccccc3)c2)n1 [CE2096, (Benzyloxycarbonyl)-L-valyl-N-[1-(3-[5-(3,5-diphenylbenzyl)-1,2,4-oxadiazolyl]carbonyl)-2-(S)-methylpropyl]-L-prolinamide]
Ki: 0.79 nM

CC(C)[C@H](NC(=O)CN(Cc1ccccc1)C(=O)c1ccc[nH]1)C(=O)c1noc(Cc2cccc(C(F)(F)F)c2)n1 [CE2097, (Pyrrole-2-carbonyl)-N-(benzyl)glycyl-N-[1-(3-[5-(3-trifluoromethylbenzyl)1-1,2,4-oxadiazolyl]carbonyl)-(S)-methylpropyl]amide]
Ki: 115 nM

Cc1cccc(Cc2nnc(C(=O)[C@@H](NC(=O)[C@@H]3CCCN3C(=O)[C@@H](NC(=O)N3CCOCC3)C(C)C)C(C)C)o2)c1 [CE2104, (Morpholino-N-carbonyl)-L-valyl-N-[1-(2-[5-(3-methylbenzyl)-1,3,4-oxadiazolyl]carbonyl)-2-(S)-methylpropyl]-L-prolinamide]
Ki: 0.33 nM

CC(=O)N1CC(=O)N(CC(=O)N[C@H](C(=O)c2nnc(Cc3cccc(C)c3)o2)C(C)C)C(=Cc2ccc(F)cc2)C1=O [CE2105, 1-Acetyl-3-(4-fluorobenzylidene) piperazine-2,5-dione-N-[1-(2-[5-(3-methylbenzyl)-1,3,4-oxadiazolyl]carbonyl)-2-(S)-methylpropyl]acetamide]
Ki: 0.72 nM

Cc1cccc(Cc2nnc(C(=O)C(NC(=O)CN3C(=O)CN(C)C(=O)C3c3ccccc3)C(C)C)o2)c1 [CE2106, 4-[1-Methyl-3-(R,S)-phenylpiperazine-2,5,-dione]-N-[1-(2-[5-(3-methylbenzyl)-1,3,4-oxadiazolyl]carbonyl)-2-(S)-methylpropyl]acetamide]
Ki: 41 nM

Cc1cccc(Cc2nnc(C(=O)[C@@H](NC(=O)Cn3c(=O)c(NC(=O)OCc4ccccc4)cc4ccc(N5CCCCC5)cc43)C(C)C)o2)c1 [CE2107, 3-[(Benzyloxycarbonyl)amino]-7-piperidinyl-quinoline-2-one-N-[1-(2-[5-(3-methylbenzyl)-1,3,4-oxadiazolyl]carbonyl)-2-(S)-methylpropyl]acetamide]
Ki: 17 nM

Cc1cccc(Cc2nnc(C(=O)[C@@H](NC(=O)Cn3c(=O)c(NC(=O)OCc4ccccc4)cc4ccccc43)C(C)C)o2)c1 [CE2108, 3-[(Benzyloxycarbonyl)amino]-quinoline-2-one-N-[1-(2-[5-(3-methylbenzyl)-1,3,4-oxadiazolyl]carbonyl)-2-(S)-methylpropyl]acetamide]
Ki: 10.5 nM

COC(=O)c1ccc(C=C2C(=O)N(C(C)=O)CC(=O)N2CC(=O)N[C@H](C(=O)c2nnc(Cc3cccc(C)c3)o2)C(C)C)cc1 [CE2112, 1-Acetyl-3-(4-carbomethoxybenzylidene) piperazine-2,5-dione-N-[1-(2-[5-(3-methylbenzyl)-1,3,4-oxadiazolyl]carbonyl)-2-(S)-methylpropyl]acetamide]
Ki: 1.2 nM

CC(=O)N1CC(=O)N(CC(=O)N[C@H](C(=O)c2nnc(Cc3cccc(C)c3)o2)C(C)C)C(=Cc2ccncc2)C1=O [CE2114, 1-Acetyl-3-[(4-pyridyl)methylene] piperazine-2,5-dione-N-[1-(2-[5-(3-methylbenzyl)-1,3,4-oxadiazolyl]carbonyl)-2-(S)-methylpropyl]acetamide]
Ki: 25 nM

CC(C)[C@H](NC(=O)[C@@H]1CCCN1C(=O)[C@@H](NC(=O)OCc1ccccc1)C(C)C)C(=O)c1noc(Cc2ccc(N(C)C)cc2)n1 [CE2115, (Benzyloxycarbonyl)-L-valyl-N-[1-(3-[5-(4-dimethylaminobenzyl)-1,2,4-oxadiazolyl]carbonyl)-2-(S)-methylpropyl]-L-prolinamide]
Ki: 1 nM
